# Laboratory results: ChEMBL document CHEMBL1201862, “PubChem BioAssay data set” (2004)
#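 Briefly, cells in 96-well plates were exposed to five compound concentrations for 48 h, and endpoints were estimated by linear interpolation. Here, GI50 denotes the concentration required for 50% inhibition of growth.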 Active and inactive are the calls of the source. Cut-off read from the data, not from the text of the source: active = GI50 up to about 1.1 µM and inactive = higher.
# Tests used:
# Test in all cases: inhibition of tumour cell growth, NCI panel, 48 h
# Malme-3M = system: Malme-3M
# UO-31 = system: UO-31
# CAKI-1 = system: CAKI-1
# EKVX = system: EKVX
# NCI-H460 = system: NCI-H460
# COLO 205 = system: COLO 205
# OVCAR-3 = system: OVCAR-3
# HT-29 = system: HT-29
# SNB-19 = system: SNB-19
# M19-MEL = system: M19-MEL
# A549 = system: A549
# CCRF-CEM = system: CCRF-CEM
# SF-539 = system: SF-539
# OVCAR-8 = system: OVCAR-8
# MCF7 = system: MCF7
# RXF 393 = system: RXF 393
# SW-620 = system: SW-620
# NCI-H226 = system: NCI-H226
# SK-MEL-2 = system: SK-MEL-2
# IGROV-1 = system: IGROV-1
# A498 = system: A498
# SK-MEL-28 = system: SK-MEL-28
# NCI-H522 = system: NCI-H522
# NCI-H23 = system: NCI-H23
# SK-OV-3 = system: SK-OV-3
# SF-295 = system: SF-295
# RPMI-8226 = system: RPMI-8226
# HOP-92 = system: HOP-92
# OVCAR-4 = system: OVCAR-4
# MOLT-4 = system: MOLT-4
# SK-MEL-5 = system: SK-MEL-5
# SF-268 = system: SF-268
# HOP-18 = system: HOP-18
# OVCAR-5 = system: OVCAR-5
# LOX IMVI = system: LOX IMVI
# UACC-62 = system: UACC-62
# DMS-273 = system: DMS-273
# K562 = system: K562
# HCC 2998 = system: HCC 2998
# U-251 = system: U-251
# DMS-114 = system: DMS-114
# KM12 = system: KM12
# HCT-116 = system: HCT-116
# SNB-75 = system: SNB-75
# SN12C = system: SN12C
# UACC-257 = system: UACC-257
# HOP-62 = system: HOP-62
# XF498 = system: XF498
# HL-60 = system: HL-60
# DLD-1 = system: DLD-1
# TK-10 = system: TK-10
# HCT-15 = system: HCT-15
# ACHN = system: ACHN
# KM-20L2 = system: KM-20L2
# M14 = system: M14
# LXFL 529 = system: LXFL 529
# 786-0 = system: 786-0
# SNB-78 = system: SNB-78
structure (smiles),measurement,setting,value
Cc1c2cc[n+](C)cc2c(C)c2c1[nH]c1ccccc12,GI50,Malme-3M,0.855 µM (active)
same,GI50,UO-31,15.8 µM (inactive)
same,GI50,CAKI-1,4.39 µM (inactive)
same,GI50,EKVX,0.718 µM (active)
same,GI50,NCI-H460,2.06 µM (inactive)
same,GI50,COLO 205,0.665 µM (active)
same,GI50,OVCAR-3,2.99 µM (inactive)
same,GI50,HT-29,5.83 µM (inactive)
same,GI50,SNB-19,0.274 µM (active)
same,GI50,M19-MEL,0.984 µM (active)
same,GI50,A549,0.225 µM (active)
same,GI50,CCRF-CEM,2.33 µM (inactive)
same,GI50,SF-539,0.468 µM (active)
same,GI50,OVCAR-8,0.399 µM (active)
same,GI50,MCF7,3.08 µM (inactive)
same,GI50,RXF 393,1.75 µM (inactive)
same,GI50,SW-620,1.17 µM (inactive)
same,GI50,NCI-H226,0.34 µM (active)
same,GI50,SK-MEL-2,1.11 µM (active)
same,GI50,IGROV-1,3.44 µM (inactive)
same,GI50,A498,4.26 µM (inactive)
same,GI50,SK-MEL-28,1.34 µM (inactive)
same,GI50,NCI-H522,0.869 µM (active)
same,GI50,NCI-H23,0.714 µM (active)
same,GI50,SK-OV-3,6.67 µM (inactive)
same,GI50,SF-295,0.233 µM (active)
same,GI50,RPMI-8226,8.49 µM (inactive)
same,GI50,HOP-92,1.33 µM (inactive)
same,GI50,OVCAR-4,2.77 µM (inactive)
same,GI50,MOLT-4,0.912 µM (active)
same,GI50,SK-MEL-5,1.35 µM (inactive)
same,GI50,SF-268,0.408 µM (active)
same,GI50,HOP-18,2.82 µM (inactive)
same,GI50,OVCAR-5,9.84 µM (inactive)
same,GI50,LOX IMVI,10.9 µM (inactive)
same,GI50,UACC-62,4.5 µM (inactive)
same,GI50,DMS-273,1.5 µM (inactive)
same,GI50,K562,2.79 µM (inactive)
same,GI50,HCC 2998,3.49 µM (inactive)
same,GI50,U-251,0.379 µM (active)
same,GI50,DMS-114,0.275 µM (active)
same,GI50,KM12,0.402 µM (active)
same,GI50,HCT-116,4.22 µM (inactive)
same,GI50,SNB-75,0.193 µM (active)
same,GI50,SN12C,0.16 µM (active)
same,GI50,UACC-257,5.97 µM (inactive)
same,GI50,HOP-62,0.441 µM (active)
same,GI50,XF498,0.548 µM (active)
same,GI50,HL-60,9.62 µM (inactive)
same,GI50,DLD-1,1.68 µM (inactive)
Cc1ccc(NC(=O)CSc2nnc(Cc3ccccc3)o2)cc1,GI50,Malme-3M,> 100 µM (inactive)
same,GI50,TK-10,> 100 µM (inactive)
same,GI50,UO-31,> 100 µM (inactive)
same,GI50,CAKI-1,> 100 µM (inactive)
same,GI50,EKVX,> 100 µM (inactive)
same,GI50,HCT-15,> 100 µM
same,GI50,NCI-H460,> 100 µM (inactive)
same,GI50,COLO 205,> 100 µM (inactive)
same,GI50,OVCAR-3,> 100 µM (inactive)
same,GI50,HT-29,> 100 µM (inactive)
same,GI50,SNB-19,> 100 µM (inactive)
same,GI50,M19-MEL,> 100 µM (inactive)
same,GI50,A549,> 100 µM (inactive)
same,GI50,ACHN,> 100 µM (inactive)
same,GI50,CCRF-CEM,> 100 µM (inactive)
same,GI50,SF-539,> 100 µM (inactive)
same,GI50,OVCAR-8,97.9 µM (inactive)
same,GI50,RXF 393,> 100 µM (inactive)
same,GI50,SW-620,> 100 µM (inactive)
same,GI50,NCI-H226,> 100 µM (inactive)
same,GI50,SK-MEL-2,> 100 µM (inactive)
same,GI50,IGROV-1,> 100 µM (inactive)
same,GI50,A498,> 100 µM (inactive)
same,GI50,SK-MEL-28,> 100 µM (inactive)
same,GI50,NCI-H522,> 100 µM (inactive)
same,GI50,NCI-H23,> 100 µM (inactive)
same,GI50,SK-OV-3,> 100 µM (inactive)
same,GI50,SF-295,> 100 µM (inactive)
same,GI50,RPMI-8226,> 100 µM (inactive)
same,GI50,OVCAR-4,> 100 µM (inactive)
same,GI50,MOLT-4,> 100 µM (inactive)
same,GI50,SK-MEL-5,> 100 µM (inactive)
same,GI50,SF-268,> 100 µM (inactive)
same,GI50,HOP-18,> 100 µM (inactive)
same,GI50,KM-20L2,> 100 µM (inactive)
same,GI50,M14,> 100 µM (inactive)
same,GI50,LXFL 529,> 100 µM (inactive)
same,GI50,OVCAR-5,> 100 µM (inactive)
same,GI50,LOX IMVI,> 100 µM (inactive)
same,GI50,UACC-62,> 100 µM (inactive)
same,GI50,DMS-273,> 100 µM (inactive)
same,GI50,K562,> 100 µM (inactive)
same,GI50,786-0,> 100 µM (inactive)
same,GI50,HCC 2998,> 100 µM (inactive)
same,GI50,U-251,> 100 µM (inactive)
same,GI50,DMS-114,53.2 µM (inactive)
same,GI50,KM12,> 100 µM (inactive)
same,GI50,HCT-116,> 100 µM (inactive)
same,GI50,SNB-75,> 100 µM (inactive)
same,GI50,SN12C,> 100 µM (inactive)
same,GI50,UACC-257,> 100 µM (inactive)
same,GI50,HOP-62,> 100 µM (inactive)
same,GI50,SNB-78,> 100 µM (inactive)
same,GI50,DLD-1,> 100 µM (inactive)
